{
  "source": "PubChem BioAssay (NCI)",
  "note": "Where “and” joins values, the source holds several entries; their conditions need not be identical. Equal entries are not always repeated.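 48-hour exposure; five concentrations; linearly interpolated endpoints. GI50 is the concentration that inhibits growth by half. TGI: total growth inhibition.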",
  "data": [
    {"system": "OVCAR-3 ovarian", "assay": "inhibition of tumour cell growth, NCI panel, 48 h", "units": {"GI50": "µM", "TGI": "µM"}, "values": [
      {"smiles": "COc1ccc(CN2C(=O)C(Cl)=C(Nc3cccc(C(F)(F)F)c3)C2=O)cc1", "GI50": 4.19, "TGI": 15.8}
    ]},
    {"system": "OVCAR-8 ovarian", "assay": "inhibition of tumour cell growth, NCI panel, 48 h", "values": [
      {"smiles": "COc1cc(-c2nn(-c3cccc(NC(=O)c4ccccc4)c3)cc2-c2ccncc2)ccc1Cl", "GI50": "995 nM", "TGI": "> 100 µM"},
      {"smiles": "CC(=O)[O-].CC(=O)[O-].O=C(N/N=C/c1cc(Cl)cc(Cl)c1O)c1ccncc1.[Cu+2]", "TGI": "> 100 µM"},
      {"smiles": "O=C1CSC(=S)N1/N=C/c1ccc(Cl)c([N+](=O)[O-])c1", "TGI": "92.2 µM"},
      {"smiles": "CCCCCCCCCCSC(=N)N", "note": "(tested in a mixture with another compound)", "GI50": "3050 nM", "TGI": "9.64 µM"},
      {"smiles": "COc1cc2c(cc1OC)-c1cc(OC)c(OC)cc1C(CN(C)C)C2", "note": "(configuration not stated)", "GI50": "> 10000 nM", "TGI": "> 10 µM"},
      {"smiles": "O=C(NC1CCCCC1)NS(=O)(=O)c1ccc(N2N=C3c4ccccc4CC3C2c2ccc(Cl)cc2)cc1", "note": "(configuration not stated)", "GI50": "19600 nM", "TGI": "71.7 µM"},
      {"smiles": "c1ccc(-c2n(Cc3ccc4ccccc4n3)cc[n+]2Cc2ccc3ccccc3c2)cc1", "GI50": "1630 nM", "TGI": "4.4 µM"},
      {"smiles": "C[C@@H]1CC[C@H]2C(C)(C)[C@H]3C[C@@]12CC[C@@]3(C)O", "TGI": "> 100 µM"},
      {"smiles": "O=C(Nc1cccc(C(F)(F)F)c1)Nc1cccc(C(F)(F)F)c1", "GI50": "1060 nM", "TGI": "10.4 µM"},
      {"smiles": "CC(C)(C)[Si](C)(C)OC1[C@@H](O[Si](C)(C)C(C)(C)C)[C@@H](CNC(=O)NC(=O)C(F)(F)F)O[C@H]1n1cnc2c(NC(=O)Nc3ccccc3)ncnc21", "note": "(some centres not stated)", "GI50": "7760 nM", "TGI": "16.7 µM"},
      {"smiles": "CC(=C(c1ccc(OCCN2CCCCC2)cc1)c1ccc(OCCN2CCCCC2)cc1)c1ccc(Cl)cc1", "GI50": "484 nM", "TGI": "1.04 µM"},
      {"smiles": "C=C(C)C(=O)O[C@@H]1C[C@@]2(C)O[C@@H]2C[C@H](O)/C(C)=C/[C@H]2OC(=O)C(=C)[C@@H]21", "TGI": "> 100 µM"},
      {"smiles": "C=CC(=O)Nc1cc(Nc2nccc(-c3cn(C)c4ccccc34)n2)c(OC)cc1N(C)CCN(C)C", "GI50": "2040 nM and 1570 nM", "TGI": "5.89 µM and 4.18 µM"},
      {"smiles": "CC(=O)OC1(C)N=NC2(CCCCC2)O1", "note": "(configuration not stated)", "TGI": "> 100 µM"},
      {"smiles": "Cc1ccc(-c2nc(N3CCNCC3)c3oc(-c4ccc(C)cc4)nc3n2)cc1", "GI50": "2130 nM", "TGI": "4.63 µM"},
      {"smiles": "Cc1cc2c(cc1C)[n+](=O)c(C(=O)c1ccccc1)c(C(F)F)n2[O-]", "GI50": "7110 nM", "TGI": "> 100 µM"},
      {"smiles": "Cc1ccc(NC2=C3CCCCC3OC2=O)cc1", "note": "(configuration not stated)", "GI50": "78400 nM", "TGI": "> 100 µM"},
      {"smiles": "CN(C)c1ccc(/C=N/NC(=S)Nc2ccccc2)cc1", "TGI": "> 100 µM"},
      {"smiles": "COc1ccc2ncnc(Nc3ccc(OCc4ccccc4)cc3)c2c1", "GI50": "8390 nM", "TGI": "> 25 µM"},
      {"smiles": "O=C1c2c(F)c(F)c(F)c(F)c2C(=O)N1c1ccc(F)cc1F", "GI50": "12800 nM", "TGI": "50.8 µM"},
      {"smiles": "CC(C)[C@@H]1NC(=O)[C@]2(C)CSC(=N2)c2ccnc(c2)CNC(=O)C[C@@H](/C=C/CCS)OC1=O", "GI50": "128 nM", "TGI": "> 100 µM"},
      {"smiles": "OC(c1cc(C(F)(F)F)nc2c(C(F)(F)F)cccc12)C1CCCCN1", "note": "(configuration not stated)", "GI50": "1970 nM", "TGI": "4.24 µM"},
      {"smiles": "C/C=C/[C@@H]1O[C@@H]2COC(=O)C2=C[C@@H]1O", "GI50": "23300 nM", "TGI": "51.8 µM"},
      {"smiles": "COC(=O)/C=C/c1cc(OC(C)=O)c2c(c1)[C@@H](C(=O)OC)[C@H](c1ccc(OC(C)=O)c(OC(C)=O)c1)O2", "GI50": "79.5 nM", "TGI": "> 88.3 µM"},
      {"smiles": "Nc1nc2[nH]cc(CCc3ccc(C(=O)N[C@@H](CCC(=O)O)C(=O)O)cc3)c2c(=O)[nH]1", "GI50": "154 nM", "TGI": "> 100 µM"},
      {"smiles": "Fc1cc(-c2nnc3n2N=C(c2ccc(Cl)cc2)CS3)c(Cl)cc1Cl", "GI50": "15300 nM", "TGI": "44.3 µM"},
      {"smiles": "CN1CCN(C(=O)COc2ccc(C34CC5CC(CC(C5)C3)C4)cc2)CC1", "GI50": "18200 nM", "TGI": "54.1 µM"},
      {"smiles": "COc1ccccc1NC(=O)c1cc2cc(Br)ccc2cc1O", "GI50": "3000 nM", "TGI": "14.7 µM"},
      {"smiles": "CC(=O)OCc1ccc2c(c1)C(O)NC(=O)O2", "note": "(configuration not stated)", "TGI": "> 100 µM"},
      {"smiles": "O=C(Nc1nn2c(-c3cc(C(F)(F)F)cc(C(F)(F)F)c3)nnc2s1)C1CCCC1", "GI50": "1180 nM", "TGI": "> 100 µM"},
      {"smiles": "COC(=O)[C@]12CC[C@@H](C)[C@H](C)[C@@H]1C1=CC[C@@H]3[C@@]4(C)C[C@@H](O)[C@H](O)[C@@](C)(CO)[C@@H]4[C@H](O)C[C@@]3(C)[C@]1(C)CC2", "GI50": "17700 nM", "TGI": "41.1 µM"}
    ]}
  ]
}
